Laboratory results from patent publication EP4459280A1, “SCREENING AND USES OF GLUTATHIONE SYNTHETASE MODULATORS” (Max-Planck-Gesellschaft zur Förderung der Wissenschaften …, priority 2023, dated 2024).
Residues, ends and D or L forms follow the SMILES beside them. *: point of attachment. Cbz = O=C(OCc1ccccc1)*

Key:
HMGCR [1] = assay: Immunoblotting for HMGCR in U2OS cells; type: cell-based, human; settings: for loss of HMGCR during glutamine withdrawal: U2OS gln-, αKG 1 mM (24h), ISRIB 200nM (8h); for rescue of HMGCR in glutamine-starved cells: U2OS w/o glutamine 24h, then treated 24h: 1mM sodium pyruvate, DON at indicated concentrations, 2 mM D-gln
Protocol: Cells were tested frequently for Mycoplasma infection by PCR.
(§1) Primary antibodies were incubated in PBS-T overnight.

eGFP-SCAP = assay: Immunofluorescence assay of eGFP-SCAP localization relative to the Golgi in CHO cells; type: cell-based, Chinese hamster; settings: CHO w/o gln 24h
Protocol: For immunofluorescence (IF) analysis of eGFP-SCAP-expressing CHOs, .25 × 10^4 cells were plated in a 24-well glass-bottom sensoplate, starved of glutamine for 24h, and incubated with methionine sulfoximine at 0.5 mM with either no glutamine, 2 mM glutamine, or 1mM a-ketoglutarate. […] Following 3X rinses in 1X PBS, images were taken using an Olympus IXplore SpinSR spinning disk confocal microscope.

p70 phospho-S6K (pS6K) = assay: Immunoblotting for phospho-S6K (mTORC1 activity) in U2OS cells; type: cell-based, human; settings: U2OS gln-, αKG 1 mM
Protocol: (§4) For all experiments, unless otherwise indicated, cells were plated in complete DMEM. The next day cell monolayers were rinsed 2X with 1X PBS and cultured in DMEM overnight, followed by treatments as indicated in text. […] Lysates were subsequently shaken at 1500 rpm at 37°C for 15min, centrifuged for 5 min at 1200 rpm at 4°C, and the supernatant was transferred into a fresh tube. Protein concentration was quantified using Pierce™ BCA Protein Assay Kit and after diluted with 5X SDS added to a final of 1X SDS. 10 ug of protein was applied in an SDS-PAGE gel and transferred to PVDF membranes. Membranes were blocked with PBS-0.05% Tween 20 (PBS-T) and 5% non-fat milk for 30min. Primary antibodies were incubated in PBS-T overnight.

SREBP2 [2] = assay: Immunoblotting for precursor and mature SREBP2 in U2OS cells; type: cell-based, human; settings: U2OS starved of glutamine 8h ± αKG 1 mM
Protocol: as §4

U2OS cells [3] = assay: 13C6-glucose isotope labeling and metabolomics (AEX-MS) of TCA metabolites in U2OS cells; type: cell-based, human; settings: U2OS 24h, gln-, 1 mM αKG
Protocol: (§2) 2 × 10^5 cells were plated in complete DMEM in 6 wells plates. The following day, cells were rinsed 2X with 1X PBS and cultured in DMEM. Treatments were started the following day as indicated in the text in 6 wells plates containing. For glucose-related isotope-labeling experiments, D-Glucose-^13C6 (Sigma #389374-1G) was administed at 25mM in 1 ml of glutamine-free DMEM. For ammonia-related isotope-labeling experiments, ammonium label experiments Ammonium-^15N chloride (Sigma #299251-250MG) at 10mM. After the indicated treatments cells were washed twice with 75mM of ammonium carbonate pH =7.4 and the plates were frozen in liquid nitrogen and stored at -80°C until metabolite extraction. For metabolite extraction, 60% MeOH containing internal standards buffer was added to each well of the frozen plate. The cells were then scraped, transferred to a new tube containing MTBE and EquiSPLASH™ LIPIDOMIX® (Avanti 330731-1EA), and incubated for 30 min at 1500 rpm at 4°C. The samples were centrifuged for 10 min at 21.000xg at 4°C. The supernatants were then collected in a new tube with LCMS-grade H2O, incubated for 10 min at 1500 rpm at 15°C, and further centrifuged for 5 min at 16.000xg at 15°C to obtain a clear phase separation. The upper phase (apolar metabolites) and the down phase (polar metabolites) were collected in different tubes. After, the metabolite extracts were dried down in speed vac and stored at -80°C until further analysis by LC-HRS-MS as described further.

U2OS cells [4] = assay: UPLC-HRMS-based measurement of 13C-cholesterol in U2OS cells; type: cell-based, human; settings: U2OS 24h, 25 mM 13C6-glucose, gln-, 1 mM αKG
Protocol: as §2, with “After, the metabolite extracts were dried down in speed vac and stored at -80°C until further analysis by LC-HRS-MS as described further.” left out

FDFT1 = assay: Immunoblotting for FDFT1 in U2OS cells; type: cell-based, human; settings: U2OS starved of glutamine 8 hours, αKG 1 mM
Protocol: as §4

HMGCR [5] = assay: Immunoblotting for HMGCR in HepG2 cells; type: cell-based, human
Description: (§3) HeLa adenocarcinoma cells, HepG2 hepatocellular carcinoma, and Wild-type (WT) MEFs as well as Mfn1^-/^-, and Mfn2^-/- mouse embryonic fibroblasts (MEFs) were obtained from ATCC (CCL-2, HB-8065, CRL-2991, CRL-2992, and CRL-2993, respectively). eGFP-SCAP-expressing CHO Chinese hamster ovary cells were provided by Drs. J Goldstein and M Brown (U of Texas Southwestern Medical Center); WT and MFN2 KO U2OS cells were provided by Dr. Edward A Fon (McGill University, Montreal, Canada). All cell lines were cultured in complete DMEM (cDMEM: DMEM + 10% heat-inactivated FBS + 1%P/S) at 5% CO2 except for CHO cells which were cultured in DMEM/F12 media containing 5% heat-inactivated FBS. For all the experiments, cells were plated and cultivated without FBS (DMEM and 10% H20 for cell culture + 1%P/S) to promote cholesterol synthesis. Cells were tested frequently for Mycoplasma infection by PCR.
For all experiments, unless otherwise indicated, cells were plated in complete DMEM. The next day cell monolayers were rinsed 2X with 1X PBS and cultured in DMEM overnight, followed by treatments as indicated in text. Whole cells were harvested in chilled lysis buffer (50mM Hepes-KOH pH 7.4, 40mM NaCl, 2mM EDTA, 1.5mM NaVO4, 50mM NaF, 10mM NaPyrophosphate, 10mM, NaBetaGlycerophosphate (disodium salt pentahydrate), 1% Triton X-100) containing 0.25U/uL. Lysates were subsequently shaken at 1500 rpm at 37°C for 15min, centrifuged for 5 min at 1200 rpm at 4°C, and the supernatant was transferred into a fresh tube. Protein concentration was quantified using Pierce™ BCA Protein Assay Kit and after diluted with 5X SDS added to a final of 1X SDS. 10 ug of protein was applied in an SDS-PAGE gel and transferred to PVDF membranes. Membranes were blocked with PBS-0.05% Tween 20 (PBS-T) and 5% non-fat milk for 30min. Primary antibodies were incubated in PBS-T overnight. Following incubation, blots were washed three times in PBS-T and then incubated with horseradish peroxidase (HRP)-conjugated anti-mouse IgG (CST #7076) or anti-rabbit IgG (CST #7074) at a 1:10000 dilution for 60 minutes ar RT and developed using a chemiluminescence system (Pierce™ ECL Western Blotting Substrate or Pierce SuperSignal™ West Atto Ultimate Sensitivity Substrate; ThermoFisher Scientific). […]

ATF4 = assay: Immunoblotting for ATF4 (integrated stress response) in U2OS cells; type: cell-based, human; settings: U2OS ± gln, ISRIB 200nM, 8h
Protocol: as §1

U2OS cells [6] = settings: U2OS cultured 24h w/o gln, supplemented 24h with 10 mM 15NH4Cl
Protocol: (§5) 2 × 10^5 cells were plated in complete DMEM in 6 wells plates. The following day, cells were rinsed 2X with 1X PBS and cultured in DMEM. Treatments were started the following day as indicated in the text in 6 wells plates containing. For glucose-related isotope-labeling experiments, D-Glucose-^13C6 (Sigma #389374-1G) was administed at 25mM in 1 ml of glutamine-free DMEM. […] After the indicated treatments cells were washed twice with 75mM of ammonium carbonate pH =7.4 and the plates were frozen in liquid nitrogen and stored at -80°C until metabolite extraction. For metabolite extraction, 60% MeOH containing internal standards buffer was added to each well of the frozen plate. […]
(§6) The LC-HRMS analysis of amine-containing compounds was performed using a QE-Plus high-resolution mass spectrometer coupled to a Vanquish UHPLC chromatography system (Thermo Fisher Scientific). […] The identity of each compound was validated by authentic reference compounds, which were measured at the beginning and the end of the sequence. For data analysis the area of the protonated [M + nBz + H]+ (nBz stands for the number of benzoyl moieties attached to each compound) isotopologue mass peaks of every required compound were extracted and integrated using a mass accuracy <3 ppm and a retention time (RT) tolerance of <0.05 min as compared to the independently measured reference compounds. […]

HepG2 cells = settings: HepG2 cultured 24h w/o gln, supplemented 24h with 10 mM 15NH4Cl
Protocol: as §5, §6

ATF6 = assay: Immunoblotting for ATF6 cleavage in U2OS cells; type: cell-based, human; settings: U2OS w/o glutamine 24h, then 8 hours ± 2 mM gln, 15 µg/ml tunicamycin
Protocol: as §1

GLUL = GLUL (Homo sapiens, UniProt P15104); settings: HepG2, 500 µM MSX for 8h; immunoblot
Sequence of GLUL (P15104 whole entry): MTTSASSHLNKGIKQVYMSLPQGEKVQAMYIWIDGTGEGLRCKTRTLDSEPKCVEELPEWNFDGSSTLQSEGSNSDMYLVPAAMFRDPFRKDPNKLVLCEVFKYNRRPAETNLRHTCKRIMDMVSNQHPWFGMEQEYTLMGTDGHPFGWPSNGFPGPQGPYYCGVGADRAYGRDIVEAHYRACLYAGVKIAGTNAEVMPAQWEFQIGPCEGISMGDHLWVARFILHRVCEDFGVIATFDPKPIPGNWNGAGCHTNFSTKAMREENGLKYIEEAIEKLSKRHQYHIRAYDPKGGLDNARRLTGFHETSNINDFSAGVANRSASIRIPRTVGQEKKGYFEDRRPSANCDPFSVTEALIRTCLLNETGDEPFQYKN
Description: as §3
For all experiments, unless otherwise indicated, cells were plated in complete DMEM. The next day cell monolayers were rinsed 2X with 1X PBS and cultured in DMEM overnight, followed by treatments as indicated in text. […] Protein concentration was quantified using Pierce™ BCA Protein Assay Kit and after diluted with 5X SDS added to a final of 1X SDS. […]

SREBP2 [7] = assay: Immunoblotting for SREBP2 cleavage in HepG2 cells; type: cell-based, human; settings: Hep G2 starved of glutamine 24h, brefeldin A 0.5 µg/ml
Protocol: as §1

`NC(=O)CC[C@H](N)C(=O)O` [glutamine] was tested, and the EC50 (HMGCR [1]; Homo sapiens, U2OS w/o gln 24h, refed gln 8h, immunoblot, read-out: half-maximal effects of glutamine on HMGCR induction) was 250 to 500 µM, the “glutamine concentration sufficient to induce HMGCR” value (HMGCR [1]; U2OS w/o gln 24h, refed gln 8h) was 0.125 mM and the “Percentage of cells with Golgi-localized eGFP-SCAP” value (eGFP-SCAP; then gln 2 mM with MSX 500 µM) was greater than 75%.

In the case of `CC(C)C[C@@H](C=O)NC(=O)[C@H](CC(C)C)NC(=O)[C@H](CC(C)C)NC(=O)OCc1ccccc1` [MG-132] (Cbz-Leu-Leu-Leu-aldehyde), the “depletion of HMGCR following glutamine withdrawal” value (HMGCR [1]; U2OS ± glutamine, MG-132 10 µM, 8h) is reported as “did not prevent the depletion of HMGCR following glutamine withdrawal”.

With `O=C(O)CCC(=O)C(=O)O` [αKG, alpha-ketoglutarate] the “loss of HMGCR during glutamine withdrawal” value (HMGCR [1]) was “neither treatment prevented the loss of HMGCR during glutamine withdrawal”, the HMGCR protein level (HMGCR [1]; U2OS starved of glutamine 8 hours, αKG 1 mM) was “decreased in cells starved of glutamine for 8 hours, despite αKG supplementation” and the “mTORC1 phosphorylation of S6 kinase (S6K1)” value (p70 phospho-S6K (pS6K)) was “restored mTORC1 phosphorylation of its target ribosomal protein S6 kinase (S6K1)”. The “processing of SREBP2 (precursor and mature forms)” value (SREBP2 [2]) was “inhibited the processing of SREBP2 with or without αKG”, the “localization of GFP-SCAP” value (eGFP-SCAP; then gln- ± αKG 1 mM with MSX 500 µM) was “retained GFP-SCAP in the ER” and the “m+2 and m+6 citrate pools” value (U2OS cells [3]; 25 mM 13C6-glucose) was “sufficient to restore m+2 and m+6 citrate pools to those of gln+ cells”. The “m+4 malate and succinate” value (U2OS cells [3]; 25 mM 13C6-glucose) was “blunted the increase in m+4 malate and succinate caused by glutamine starvation”, the “levels of TCA-intermediates (total pool size)” value (U2OS cells [3]) was “partly rescued levels of TCA-intermediates” and the 13C-incorporation into cholesterol (U2OS cells [4]) was “did not, however, rescue the >5-fold decrease in ^13C-incorporation into cholesterol”. The FDFT1 protein level (FDFT1) was “decreased in cells starved of glutamine for 8 hours, despite αKG supplementation”.

In the case of `Cl.N` [ammonia, ammonium chloride], the “HMGCR following ammonia treatment” value (HMGCR [5]; HepG2 starved of glutamine 24h, then 24 h w/o gln ± 10 mM 15NH4Cl) is reported as “increased following ammonia treatment” and the “glutamine and HMGCR following ammonia treatment” value (HMGCR [1]; U2OS starved of glutamine 24h, then 24 h w/o gln ± 10 mM 15NH4Cl) is reported as “neither glutamine nor HMGCR increased following ammonia treatment”.

`O=C(COc1ccc(Cl)cc1)NC1CCC(NC(=O)COc2ccc(Cl)cc2)CC1` (centres unmarked) [ISRIB] was tested, and the “loss of HMGCR during glutamine withdrawal” value (HMGCR [1]) was “neither treatment prevented the loss of HMGCR during glutamine withdrawal” and the “activation of ISR effector ATF4” value (ATF4) was “blocked the activation of the key ISR effector ATF4”.

`[N-]=[N+]=CC(=O)CC[C@H](N)C(=O)O` [DON, 6-diazo-5-oxo-L-norleucine] was tested, and the “rescue of HMGCR in glutamine-starved cells” value (HMGCR [1]) was “do not rescue HMGCR in glutamine-starved cells”.

For `Cl.N` [^15N-ammonia, Ammonium-^15N chloride], the “15N-labelled glutamine of total glutamine” value (U2OS cells [6]) was “less than 2%”, the “15N-labelled glutamine of total glutamine” value (HepG2 cells) was “majority” and the “increase of total glutamine pool” value (HepG2 cells) was “> two-fold”.

`NC(=O)CC[C@@H](N)C(=O)O` [D-glutamine] was tested, and the “rescue of HMGCR in glutamine-starved cells” value (HMGCR [1]) was “do not rescue HMGCR in glutamine-starved cells”.

For “uridine diphosphate N-acetylglucosamine [UDP-GlcNAc]”, the “rescue of HMGCR levels during glutamine starvation by supplements” value (HMGCR [1]; U2OS w/o gln 8 hours, NEAA 100 µM, nucleosides, glucosamine 1 mM, ± αKG 1mM) was “did not rescue HMGCR levels during glutamine starvation”.

`O=C(Cc1ccccc1)Nc1nnc(CCSCCc2nnc(NC(=O)Cc3ccccc3)s2)s1` [BPTES, bis-2-(5-phenylacetamido-1,3,4-thiadiazol-2-yl)ethylsulfide] was tested, and the “HMGCR levels in glutamine-replete conditions” value (HMGCR [1]; U2OS 8h, 30µM BPTES, 2 mM gln, 1 mM αKG) was “did not reduce HMGCR levels”.

In the case of tunicamycin, the ATF6 cleavage (ATF6) is reported as “similarly drove ATF6 cleavage in glutamine-fed or starved cells”.

With `CS(=N)(=O)CCC(N)C(=O)O` (centres unmarked) [MSX, 2-amino-4-(S-methylsulfonimidosyl) butanoic acid] the “HMGCR during glutamine starvation” value (HMGCR [5]; HepG2 starved of gln 24h, then w/out gln ± 500 µM MSX for 8h, immunoblot) was “further decreased HMGCR during glutamine starvation”, the “ammonium chloride-induced increase in HMGCR” value (HMGCR [5]; HepG2 starved of gln 24h, then w/out gln, 10 mM NH4Cl ± 500 µM MSX for 8h, immunoblot) was “prevented the ammonium chloride-induced increase in HMGCR” and the “migration pattern of GLUL” value (GLUL) was “led to a shift in the migration pattern of GLUL”.

For `C[C@H]1CCC/C=C/[C@@H]2C[C@H](O)C[C@H]2[C@H](O)/C=C/C(=O)O1` [BFA, brefeldin A], the HMGCR (HMGCR [5]; Hep G2 starved of glutamine 24h, brefeldin A 0.5 µg/ml) was “rescue SREBP2 cleavage and HMGCR in glutamine-starved cells to levels similar to those in glutamine-fed cells” and the SREBP2 cleavage (SREBP2 [7]) was “rescue SREBP2 cleavage and HMGCR in glutamine-starved cells to levels similar to those in glutamine-fed cells”.

With `CC(=O)C(=O)[O-].[Na+]` [pyruvate, sodium pyruvate] the “rescue of HMGCR in glutamine-starved cells” value (HMGCR [1]) was “do not rescue HMGCR in glutamine-starved cells”.
